Test results from patent US20160309764A1, “FOOD COMPOSITION COMPRISING FERROUS PICOLINATE” (NESTEC S.A., priority 2013, published 2016).
Entries after “also recorded” stand apart in the source; their conditions may differ.

Experiments:
[1] = Colour change of fortified pasteurized yoghurts on storage at 37° C. versus colour immediately after pasteurization (CIELAB); assay type: physicochemical; details: stored at 37° C.; for ΔEab* day 7: day 7, versus colour immediately after pasteurization; for ΔEab* day 30: day 30, versus colour immediately after pasteurization; for ΔEab* day 60: day 60, versus colour immediately after pasteurization; for ΔEab* day 120: day 120, versus colour immediately after pasteurization
[2] = Colour difference of iron fortified strawberry-banana yoghurt after flash pasteurization versus yoghurt with no iron salts (CIELAB); assay type: physicochemical; details: approx. 0.8 mg iron per 100 g, pasteurized at 105° C. for 2 minutes
Experimental: Commercial yoghurt, Nestlé Jogolino™ Strawberry/Banana yoghurt containing 15% banana puree and 10% strawberry puree was iron fortified by the addition of different iron salts to 5 kg yoghurt as reported in the table below. The amounts were chosen to provide approximately 0.8 mg iron per 100 g yoghurt. […] Colour measurements were performed in 1×1 cm polystyrene cuvettes using an X-Rite ColorEye 7000A colorimeter. The colorimeter was set up with a D65 light source, 10 degree observer angle and with specular component included. The colour difference between the yoghurt with no iron salts and the iron fortified yoghurt was measured for each iron salt and expressed as ΔEab* using the CIELAB colour scale.

Row | Molecule | ΔEab* day 7 [1] | ΔEab* day 30 [1] | ΔEab* day 60 [1] | ΔEab* day 120 [1] | colour change over time ([1]; up to 120 days, compared with the other iron salts) | ΔEab* [2] | ΔEab* ([2]; listed as ferrous picolinate) | ΔEab* day 30 ([1]; listed as ferrous sulphate)
1 | Ferrous picolinate | 0.51 | 2.18 | 4.66 | 8.19 | smaller than the yoghurts fortified by the other iron salts | 1.28 | closer in colour to unfortified yoghurts; also recorded: closest colour to the yoghurt with no added iron | –
2 | O=C([O-])CN(CCN(CC(=O)[O-])CC(=O)[O-])CC(=O)[O-].[Fe+3].[Na+] [NaFeEDTA × H2O, ferric sodium EDTA] | 0.96 | 4.16 | 6.93 | 9.37 | – | 3.11 | – | –
3 | O=S(=O)([O-])[O-].[Fe+2] [FeSO4 × H2O, Ferrous sulphate] | 0.78 | 3.27 | 5.91 | 10.34 | – | 4.74 | – | much greater colour changes
